This is an account of results in US6008190A, “Cobalt Schiff base compounds” (California Institute of Technology, priority 1995, dated 1999).

pKi: −log10 of the molar value. Like-named read-outs stand apart in the source and are kept apart here. Where a SMILES comes first, the peptide text is derived from it. [ ]: non-standard residue; d: D form.

For one experiment, the target named is T1, Human a-thrombin (Homo sapiens, UniProt P00734).
T1 construct: Human a-thrombin and the assay agent Spectrozyme; purchased American Diagnostica (Greenwich, Conn.); host or cells: purified blood product
The experiment can be described thus: Thrombin inhibition assay, Spectrozyme TH hydrolysis at 406 nm. In kind it is biochemical. As to conditions: for thrombin activity after incubation / activity relative to control: 0.1 μM thrombin; for thrombin activity after incubation: 2.5 mM, 24 hours at room temperature, assayed at 25° C.; for activity relative to control: 2.5 mM or similar concentration, 24 hours room temperature, Co(II) compound incubated under inert atmosphere then exposed to air. The method, then:
FIG. 1 depicts the inhibition of thrombin. 3.07×10^-9 M thrombin at 25C was assayed using Spectrozyme TH (American Diagnostics), and the reaction followed at 406 nm using a Hewlett Packard HP8452A diode array spectrophotometer with temperature control. All assays were performed in 10 mM Tris, 10 mM HEPES, 0.1% polyethylene glycol, 0.5 M NaCl, pH 7.8. The Co(III) carboxypropyl(NH3)2 (labeled as Co(carboxypropyl)) was coupled to the active site directed peptide NH2 -GGGdFPR-CO-NIH SEQ ID NO: 1 (labeled as peptide dFPR). The observed inhibition greatly exceeded Co(carboxypropyl)(NH3) )2, the peptide, and Co(III)acacen(NH3)2 Cl (labeled as Co(acacen)).
N-(2-hydroxyethyl)piperazine-N'-2-ethanesulfonic acid (HEPES) was from J. T. Baker Phillipsburg, N.J.). Cobaltous acetate tetrahydrate was obtained from FM Science (Gibbstown, N.J.). Human a-thrombin and the assay agent Spectrozyme (H-D-hexahydrotyrosyl-L-alanyl-L-arginine-p-nitroaniline diacetate) were purchased from American Diagnostica (Greenwich, Conn.). Antithrombotic peptides were manufactured as amides by the Beckman Institute Biopolymer Synthesis group at Caltech using solid phase methods. […] was from Pharmacia (Uppsala, Sweden). Enzyme reactions were followed spectrophotometrically using a photodiode array spectrophotometer. Ultrafiltration materials were from Amicon (Beverly Mass.). HPLC used Vydac reverse phase columns. ^1 H NMR were obtained on a 300 MHz FT-NMR spectrometer. Solvents used include EM Omnisolve MeOH, Omnisolve […] passed over basic alumina to remove residual acid, Fluka (Bubcs. Switzerland) puriss. MeOH and dioxane, and Quantum Chemical (Tuscola, Ill.) absolute EtOH. Distilled water was prepared by a Barnistead Nanopure system. All other solvents were reagent trade.
Thrombin inhibition assay: As with any purified blood product, proper care was taken to avoid the transmission of blood-borne pathogens. Thrombin was taken as received (about 1 ml, at 30 μM in 0.75 M sodium chloride storage solution) and divided into 100 μL aliquots. Each aliquot was diluted to 10 ml. using clean. filtered (2 μm) aqueous 0.75 M NaCl and divided into 1 mL samples. Each sample was stored frozen at -80° C. until ready for use. The protein should not be stored at -20 ° C. as this is too close to the cutectic point for the thrombin-salt mixture and freeze-thaw cycling may damage the protein.
An assay buffer containing 10 mM Tris, 10 mM HEPES, 0.1% polyethylene glycol (PEG 8000) and 500 mM sodium chloride was prepared to pH 8. Following manufacturer's instructions, 5 ,μmole Spectrozyme TH was dissolved in 1.000 mL filtered nanopure water. A series of [Co^III (acacen)(NH3)2 ]Cl solutions was prepared by dissolving 16.6 mg of the compound in 0.75M NaCl and then diluting aliquots to a range of cobalt concentrations from 4.7 mM to 4.7 nM. Both of the purified materials were assayed.
Thrombin was preincubated with inhibitor in the kinetics buffer (total volume of thrombin, buffer, and inhibitor of […]) for the times specified in FIG. 1. After incubation, the substrate, spectrozyme TH was added (8 mL of 5 mM spectrozyme), and the thrombin-catalyzed hydrolysis rates were monitored at 406 nm. The final concentration of thrombin in the experiments was 3 nM, and the concentration of substrate was […]. The inhibitor concentrations are outlined in FIG. 1. The rates of hydrolysis were determined from the linear portion of the saturation-kinetics plots. The percent activity is determined by dividing the rate of spectrozyme hydrolysis with inhibitor by the rate of hydrolysis without inhibitor and multiplying by 100.
A vial of thrombin prepared as above was thawed in warm water. 100 μL aliquots were added to 100 μL, samples of the cobalt acacen solutions. One 100 μL aliquot of thrombin solution was diluted with 100 μL 0.75M NaCl to be used as a control. Samples were incubated as needed before assay. […]

A short description of experiment [1]: Axial ligand exchange of ammonia for imidazole. It is filed as physicochemical. The settings on record: in water with excess imidazole, 25° C. The source says:
In a preferred embodiment, the cobalt compounds find use in the inhibition of proteins and enzymes of tumor cells. As outlined above, Co(III) "acacen" compounds can exchange an axial ligand for a different one by a dissociative mechanism with the slow loss of one axial ligand to form a five coordinate intermediate, followed by binding to another suitable ligand. For most cobalt complexes, ligand exchange is a slow process because there is a large loss of ligand field stabilization energy when a ligand is removed from an octahedral d^6 complex (see Huheey et al., Inorganic Chemistry: Principles of Structure and Reactivity, 4th Ed. HarperCollins. N.Y., chapter 13). Generally, the exchange is slow; for example, [Co(III)(acacen)(NH3)2 ]Cl in water with excess imidazole exchanges ammonia for imidazole with a half-life under an hour at 25° C., with the rate of exchange increasing with temperature. However, reduction to cobalt(II) puts an electron into the antibonding dz2 orbital, labilizing the axial ligands. Typical one-electronic reduction potentials with irreversible loss of an axial ligand are around -360 mV vs NHE, (Darbieu et al., Transition Met. Chem., 7:149 (1982)). This property may be exploited as a "redox switch" to control the activity of the cobalt compound. […]

Experiment [2] concerns the target T2, Thermolysin (Bacillus thermoproteolyticus, UniProt P00800). As to conditions: incubated with 5 mM inhibitor, HEPES pH 7.0, thermolysin 5×10^-8 M, cobalt inhibitor 1.25×10^-5 M. How it is done: Thermolysin (2,500,000 units, Calbiochem) was dissolved in 20 mL of Tris buffer (pH 7.2, 0.1 M, 2.5 M NaBr. 0.01 M CaCI2) and stored at 4° C.; enzyme concentration was determined by using E1%^280 =7.65 and a molecular weight of 34,600. This solution was further purified using gel filtration chromatography on an FPLC Using a Superdex 75 column (Pharmacia) equilibrated with 0.1 M Tris, 0.1 M NaBr, 0.01 CaCI, pH 7.2. This stock solution was stored at 4C. N-[3-(2-furyl)acryloyl]glycyl L-leuciniamide (FAGLA) was obtained from Sigma as the thermolysin substrate. A stock solution of FAGLA (4.0 mM) was prepared by dissolving the substrate in dimethylforthamide (DMF) and diluting it with buffer to a final concentration of 0.1 M Tris, 0.1 NaBr and 10 mM CaCl2, pH 7.0 (final concentration of DMF was 2.5%; sec Feder et al., Biochem. 9:2784-2791 (1970)). For all assays, the concentration of enzyme and substrate was 50 nM and 2.0 mM respectively. The peptidase activity of thermolysin was determined by following the decrease in absorption at 346 due to the enzymatic hydrolysis of FAGLA. Initial velocities were determined for ≤10% of the reaction.
Thermolysin (2×10^-5 mol) was incubated with [Co(III)acacen(NH3)2 ]Cl (5 mM) in HEPES buffer (pH 7.0, 0.01 M, 0.005 M CaCl2).
Stock solution of thermolysin was mixed with the cobalt compound dissolved in 0.1 M Tris, 0.1 M NaBr, 0.01 CaCl2, pH 7.2 (run buffer) to yield a final enzyme concentration of […] and a cobalt concentration of 2.5 mM. These solutions were incubated at 25C or 37C for several hours along with a control lacking cobalt compound. Periodically […] aliquots of these solutions were assayed for residual enzyme activity by their addition to a cuvette contain […] of FAGLA stock Solution, and following the absorption decrease at 346 nm as described above. All enzyme assays were performed at 25C.

Experiment [3] deals with T2, Thermolysin. An excerpt:
The resulting solution was transferred into the Tris running buffer using a PD-10 column (Pharmacia), and was characterized.

Another experiment concerns the target thrombin (Homo sapiens, UniProt P00734). As to conditions: initial estimate for two separate samples. The method, then: The [Co(III)acacen(NH3)2 ]CI experiments were repeated for a range of cobalt concentrations from 2.4 mM to 2.4 nM after at 12 hour incubation at 25C.
The target of experiment [4] is T3, Bovine carbonic anhydrase (Bos taurus, UniProt P00921).
T3 construct: purchased Calbiochem
T3 sequence (P00921 whole entry): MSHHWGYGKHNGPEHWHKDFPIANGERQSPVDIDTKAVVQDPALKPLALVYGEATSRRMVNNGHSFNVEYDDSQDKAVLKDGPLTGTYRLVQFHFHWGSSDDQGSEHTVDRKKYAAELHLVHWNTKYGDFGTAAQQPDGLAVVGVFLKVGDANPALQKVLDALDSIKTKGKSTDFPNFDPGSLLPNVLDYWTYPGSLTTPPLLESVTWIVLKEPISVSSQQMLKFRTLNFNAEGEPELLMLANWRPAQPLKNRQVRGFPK
The experiment can be described thus: Inhibition of carbonic anhydrase, p-nitrophenylacetate substrate. In kind it is biochemical. The settings on record: for % inhibition of CA: inert atmosphere, Tris pH 8. How it is done: Bovine carbonic anhydrase (20 mg 6.7×10^-7 mol, Calbiochem) was dissolved in 0.5 mL Tris buffer (pH=8, 0.05 M). To this solution was added 30 mg of Co(II)hydroxypropyl acacen (30 mg, 7.6×10^-5 mol) dissolved in 0.5 mL of H2 O. This solution was incubated for 48 hours. The excess cobalt complex was separated from the protein using a PD-10 gel filtration column equilibrated with Tris buffer (pH 8, 0.05 M). This enzyme, which was incubated with the Co(III) complex, retained 100% of its activity.
Two samples of bovine carbonic anhydrase (30 mg, 1×10^-6 mol) were dissolved in 3 mL of degassed Tris buffer (pH 8, 0.05 M). To one of the samples was added Co(II)hydroxypropyl acacen (30 mg, 9×10^-5mol). The other sample of bovine carbonic anhydrase served as the control. The solutions were incubated under inert atmosphere (glove box) and a 1 mL aliquot was removed from each sample after 48 and 96 hours of incubation. The protein was then exposed to air and the excess Co(II)hydroxypropyl acacen separated from the protein using a PD-10 gel filtration column (Pharmacia) equilibrated with Tris buffer (pH 8, 0.05 M). The enzymatic activity of the protein was assayed using p-nitroplhenylacetate as the substrate (Pocker et al., Biochem. 6:668-678 (1967)).

T2 sequence (P00800 233-548): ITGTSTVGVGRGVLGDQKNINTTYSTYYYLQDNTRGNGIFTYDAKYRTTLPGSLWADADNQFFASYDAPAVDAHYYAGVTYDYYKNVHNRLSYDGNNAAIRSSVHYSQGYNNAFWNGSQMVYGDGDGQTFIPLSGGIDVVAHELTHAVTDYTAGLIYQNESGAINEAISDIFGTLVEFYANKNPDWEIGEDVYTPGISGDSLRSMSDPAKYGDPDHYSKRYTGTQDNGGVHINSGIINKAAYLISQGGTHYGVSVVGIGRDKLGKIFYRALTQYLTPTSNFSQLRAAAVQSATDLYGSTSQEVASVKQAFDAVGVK

As to `CC(=O)C=C(C)NCCNC(C)=CC(C)=O` [cobalt-free ligand, acetylacetone etlhylenediamine], at Human a-thrombin, the “thrombin activity after incubation” value is “no effect”.
In general, % inhibition refers to how much of the control response was suppressed. `CC([O-])=CC(C)=NCCN=C(C)C=C(C)[O-].N.N.[Cl-].[Co+3]` [[Co(III)acacen(NH3)2]Cl]: the “half-life of exchange of ammonia for imidazole” value in experiment [1] is “under an hour”. The “% inhibition” value was 46.2% on Thermolysin [2] (45 minutes incubation), 63.9% on Thermolysin [2] (190 minutes incubation) and 77.7% on Thermolysin [2] (322 minutes incubation). For the same molecule, the “activity relative to control” value on Human a-thrombin turned out to be 0%. For the same molecule, the “thrombin activity after incubation” value on Human a-thrombin was “completely inactive”. Moreover, the “lowest cobalt concentration found to inhibit the protein” value at Human a-thrombin (range 2.4 mM to 2.4 nM, 12 hour incubation at 25C) turned out to be 24 µM. Also, the “inhibition at lower incubation temperature” value on Human a-thrombin (range of cobalt concentrations, 3 hours at 5C, activity determined at 25C) is given as “Partial inhibition”. For the same molecule, on Thermolysin [3] (5 mM cobalt complex, 10 μM thermolysin, overnight at 25C in presence of 50 μM phosphoramidon, after removal of the inhibitor), the “loss of enzyme activity due to irreversible inactivation by the cobalt complex” value is “no detectable loss of enzyme activity”. In addition, on Thermolysin [3] (active enzyme, active site protected by phosphoramidon), the “cobalt complexes bound to the enzyme” value is “two”. The “equivalents of the cobalt compound bound for each enzyme molecule” value on Thermolysin [3] (thermolysin completely inactivated by the cobalt complex) was “three”. Besides, at thrombin, the cobalts per enzyme is recorded as 5-8.
Turning to “[Co(III)hydroxypropylacacen(NH3)2 ]CH3 COO [Co(III) complex]”, the “enzyme activity retained after incubation” value in experiment [4] (incubated 48 hours, Tris buffer pH 8, excess complex removed by gel filtration) was 100%.
For orientation: pKi means the Ki on a negative log10 scale, so that one unit is a factor of ten. As for `N=C(N)NCCC[C@H](NC(=O)[C@@H]1CCCN1C(=O)[C@@H](Cc1ccccc1)NC(=O)CNC(=O)CNC(=O)CN)C(N)=O` [(Gly)3 dPhePioArg, reference compound] (H-GGG[dF]PR-NH2), the pKi on Human a-thrombin was ~3.68.
With Co(II)hydroxypropyl acacen, the “% inhibition of CA” value worked out at 33.8% in experiment [4] (48 hours incubation) and 43.2% in experiment [4] (96 hours incubation). The “activity relative to control” value at Human a-thrombin was 42%.
